Measurements reported in PubChem BioAssay (NCI).
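Following 48 hours of exposure in 96-well plates, responses at five concentrations were used to interpolate endpoints linearly. GI50 is the concentration that inhibits growth by half. Definition used: TGI = concentration required for complete inhibition of growth.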

Experiments:
Assay in all cases: inhibition of tumour cell growth, NCI panel, 48 h
CCRF-CEM leukemia = system: CCRF-CEM leukemia
EKVX NSCLC = system: EKVX NSCLC
COLO 205 colon = system: COLO 205 colon
DU-145 prostate = system: DU-145 prostate
HCT-15 colon = system: HCT-15 colon
SK-OV-3 ovarian = system: SK-OV-3 ovarian
MDA-MB-468 breast = system: MDA-MB-468 breast
HS 578T breast = system: HS 578T breast
NCI-H460 lung = system: NCI-H460 lung
UO-31 renal = system: UO-31 renal
SW-620 colon = system: SW-620 colon
A498 renal = system: A498 renal
OVCAR-8 ovarian = system: OVCAR-8 ovarian
PC-3 prostate = system: PC-3 prostate
MOLT-4 leukemia = system: MOLT-4 leukemia
SNB-75 CNS = system: SNB-75 CNS
RXF 393 renal = system: RXF 393 renal
U251 CNS = system: U251 CNS
UACC-62 melanoma = system: UACC-62 melanoma
SNB-19 CNS = system: SNB-19 CNS
IGROV1 ovarian = system: IGROV1 ovarian
MDA-MB-435 = system: MDA-MB-435
SK-MEL-2 melanoma = system: SK-MEL-2 melanoma
OVCAR-4 ovarian = system: OVCAR-4 ovarian
HOP-92 NSCLC = system: HOP-92 NSCLC
ACHN renal = system: ACHN renal
LOX IMVI melanoma = system: LOX IMVI melanoma
OVCAR-5 ovarian = system: OVCAR-5 ovarian
786-0 renal = system: 786-0 renal
SK-MEL-28 melanoma = system: SK-MEL-28 melanoma
NCI/ADR-RES ovarian = system: NCI/ADR-RES ovarian
SK-MEL-5 melanoma = system: SK-MEL-5 melanoma
MDA-MB-231 breast = system: MDA-MB-231 breast
UACC-257 melanoma = system: UACC-257 melanoma
SF-295 CNS = system: SF-295 CNS
MALME-3M melanoma = system: MALME-3M melanoma
M14 melanoma = system: M14 melanoma
RPMI-8226 leukemia = system: RPMI-8226 leukemia
HT29 colon = system: HT29 colon
SF-539 CNS = system: SF-539 CNS
NCI-H23 lung = system: NCI-H23 lung
HCC-2998 colon = system: HCC-2998 colon
OVCAR-3 ovarian = system: OVCAR-3 ovarian
BT-549 breast = system: BT-549 breast
NCI-H522 lung = system: NCI-H522 lung
KM12 colon = system: KM12 colon
TK-10 renal = system: TK-10 renal
CAKI-1 renal = system: CAKI-1 renal
SN12C renal = system: SN12C renal
NCI-H226 lung = system: NCI-H226 lung
HCT-116 colon = system: HCT-116 colon
K-562 leukemia = system: K-562 leukemia
SF-268 CNS = system: SF-268 CNS
T-47D breast = system: T-47D breast
HL-60(TB) leukemia = system: HL-60(TB) leukemia
MCF7 breast = system: MCF7 breast
HOP-62 NSCLC = system: HOP-62 NSCLC
A549 NSCLC = system: A549 NSCLC

`C=C1CCC2C3(C)COC(c4ccco4)OC3CCC2(C)C1CC(Sc1ccccc1)C1=CCOC1=O` (stereo unspecified) showed a GI50 (CCRF-CEM leukemia) of 2.12 µM, a TGI (CCRF-CEM leukemia) of over 100 µM and a GI50 (EKVX NSCLC) of 11 µM. It also gave a TGI (EKVX NSCLC) of over 100 µM, a GI50 (COLO 205 colon) of 24.4 µM and a TGI (COLO 205 colon) of over 100 µM. The GI50 (DU-145 prostate) was 9.01 µM, the TGI (DU-145 prostate) was 73.6 µM and the GI50 (HCT-15 colon) was 6.66 µM. It also gave a TGI (HCT-15 colon) of 52.9 µM, a GI50 (SK-OV-3 ovarian) of 80.1 µM and a TGI (SK-OV-3 ovarian) of over 100 µM. The GI50 (MDA-MB-468 breast) was 3.8 µM, the TGI (MDA-MB-468 breast) was 16.7 µM and the GI50 (HS 578T breast) was 35.7 µM. For the same compound, the TGI (HS 578T breast) was over 100 µM, the GI50 (NCI-H460 lung) was 21.7 µM and the TGI (NCI-H460 lung) was over 100 µM. It also gave a GI50 (UO-31 renal) of 13.4 µM, a TGI (UO-31 renal) of over 100 µM and a GI50 (SW-620 colon) of 3.43 µM. The TGI (SW-620 colon) was 15 µM, the GI50 (A498 renal) was over 100 µM and the TGI (A498 renal) was over 100 µM. The GI50 (OVCAR-8 ovarian) was 3.05 µM, the TGI (OVCAR-8 ovarian) was 14.3 µM and the GI50 (PC-3 prostate) was 6.71 µM. It also gave a TGI (PC-3 prostate) of over 100 µM, a GI50 (MOLT-4 leukemia) of 4.41 µM and a TGI (MOLT-4 leukemia) of over 100 µM. It also gave a GI50 (SNB-75 CNS) of 8.98 µM, a TGI (SNB-75 CNS) of over 100 µM and a GI50 (RXF 393 renal) of 8.05 µM. For the same compound, the TGI (RXF 393 renal) was 49.1 µM, the GI50 (U251 CNS) was 5.88 µM and the TGI (U251 CNS) was 20.3 µM. The GI50 (UACC-62 melanoma) was 12.4 µM, the TGI (UACC-62 melanoma) was 31.8 µM and the GI50 (SNB-19 CNS) was 42.3 µM. It also gave a TGI (SNB-19 CNS) of over 100 µM, a GI50 (IGROV1 ovarian) of 17.8 µM and a TGI (IGROV1 ovarian) of over 100 µM. It also gave a GI50 (MDA-MB-435) of 8.94 µM, a TGI (MDA-MB-435) of over 100 µM and a GI50 (SK-MEL-2 melanoma) of 7.3 µM. It also gave a TGI (SK-MEL-2 melanoma) of 22 µM, a GI50 (OVCAR-4 ovarian) of 14.7 µM and a TGI (OVCAR-4 ovarian) of over 100 µM. The GI50 (HOP-92 NSCLC) was 16.5 µM, the TGI (HOP-92 NSCLC) was over 100 µM and the GI50 (ACHN renal) was 14.1 µM. It also gave a TGI (ACHN renal) of over 100 µM, a GI50 (LOX IMVI melanoma) of 1.81 µM and a TGI (LOX IMVI melanoma) of 4 µM. For the same compound, the GI50 (OVCAR-5 ovarian) was 21.7 µM, the TGI (OVCAR-5 ovarian) was 91 µM and the GI50 (786-0 renal) was 14.3 µM. For the same compound, the TGI (786-0 renal) was 34.1 µM, the GI50 (SK-MEL-28 melanoma) was 28.5 µM and the TGI (SK-MEL-28 melanoma) was over 100 µM. The GI50 (NCI/ADR-RES ovarian) was 2.6 µM, the TGI (NCI/ADR-RES ovarian) was 6.95 µM and the GI50 (SK-MEL-5 melanoma) was 10.8 µM. The TGI (SK-MEL-5 melanoma) was 22.9 µM, the GI50 (MDA-MB-231 breast) was 14.3 µM and the TGI (MDA-MB-231 breast) was 53.2 µM. For the same compound, the GI50 (UACC-257 melanoma) was 21.9 µM, the TGI (UACC-257 melanoma) was over 100 µM and the GI50 (SF-295 CNS) was 25.7 µM. For the same compound, the TGI (SF-295 CNS) was over 100 µM, the GI50 (MALME-3M melanoma) was 35.6 µM and the TGI (MALME-3M melanoma) was over 100 µM. The GI50 (M14 melanoma) was 15.7 µM, the TGI (M14 melanoma) was 69.2 µM and the GI50 (RPMI-8226 leukemia) was 2.36 µM. The TGI (RPMI-8226 leukemia) was 8.23 µM, the GI50 (HT29 colon) was 4.26 µM and the TGI (HT29 colon) was 26.1 µM. It also gave a GI50 (SF-539 CNS) of 4.12 µM, a TGI (SF-539 CNS) of 15.6 µM and a GI50 (NCI-H23 lung) of 21.5 µM. For the same compound, the TGI (NCI-H23 lung) was 88.9 µM, the GI50 (HCC-2998 colon) was 21.1 µM and the TGI (HCC-2998 colon) was over 100 µM. The GI50 (OVCAR-3 ovarian) was 3.78 µM, the TGI (OVCAR-3 ovarian) was 12.5 µM and the GI50 (BT-549 breast) was 3.97 µM. For the same compound, the TGI (BT-549 breast) was 16.9 µM, the GI50 (NCI-H522 lung) was 7.51 µM and the TGI (NCI-H522 lung) was 20.4 µM. The GI50 (KM12 colon) was 12.1 µM, the TGI (KM12 colon) was over 100 µM and the GI50 (TK-10 renal) was 97.7 µM. It also gave a TGI (TK-10 renal) of over 100 µM, a GI50 (CAKI-1 renal) of 18.4 µM and a TGI (CAKI-1 renal) of over 100 µM. The GI50 (SN12C renal) was 9.46 µM, the TGI (SN12C renal) was over 100 µM and the GI50 (NCI-H226 lung) was 6.22 µM. It also gave a TGI (NCI-H226 lung) of 62.6 µM, a GI50 (HCT-116 colon) of 4.39 µM and a TGI (HCT-116 colon) of 17.9 µM. For the same compound, the GI50 (K-562 leukemia) was 3.62 µM, the TGI (K-562 leukemia) was over 100 µM and the GI50 (SF-268 CNS) was 59.5 µM. It also gave a TGI (SF-268 CNS) of over 100 µM, a GI50 (T-47D breast) of 14.4 µM and a TGI (T-47D breast) of over 100 µM. The GI50 (HL-60(TB) leukemia) was 2.82 µM, the TGI (HL-60(TB) leukemia) was 36.4 µM and the GI50 (MCF7 breast) was 3.75 µM. For the same compound, the TGI (MCF7 breast) was 41 µM, the GI50 (HOP-62 NSCLC) was 23.5 µM and the TGI (HOP-62 NSCLC) was over 100 µM. It also gave a GI50 (A549 NSCLC) of 18.7 µM and a TGI (A549 NSCLC) of over 100 µM.
